Data: patent US20030033638A1, “Production of transgenic plants of the tagetes species” (priority 1999, published 2003)

Test system: leaves of Tagetes patula plants of genotypes TAG 80 and TAG 81
Assay: Determination of phosphinothricin (PPT) toxicity on leaf explants
Format: cell-based
Details: leaf disks 10-60 mm^2 on MS medium with 2% sucrose, 3 mg/l BAP, 1 mg/l IAA; 2 weeks; both genotypes TAG 80 and TAG 81
Description: Leaves of Tagetes patula plants of genotypes TAG 80 and TAG 81 (Genbank, IPK Gatersleben) which were established in vitro were cut transversely to the central vein into disks 10-60 mm^2 in size and placed on MS medium supplemented with 2% sucrose, 3 mg/l benzylaminopurine (BAP), 1 mg/l indoleacetic acid (IAA) and different PPT concentrations. Incubation was for 2 weeks in a 16/8 hour light/dark photoperiod at approx. 50 μE/m^2s and at from 21 to 24° C. Then, the number of damaged explants was recorded with reference to the total number of tested explants (FIG. 2). In both Tagetes patula genotypes tested, concentrations starting at 1 mg/l PPT led to the complete destruction of all explants, which is why this concentration was used for the selection after cocultivation.

SMILES: CP(=O)(O)CC[C@H](N)C(=O)O [PPT, phosphinothricin]
- PPT concentration leading to the complete destruction of all explants: ≥ 1 mg/L
